Measured values reported in patent publication US20030138476A1, “Use of glutamate and/or a glutamate precursor for the preparation of a nutritional or pharmaceutical preparation for the treatment or prevention of hyperpermeability or undesired permeability of the intestinal wall” (priority 2000, published 2003).

How the values were obtained:
HT-29CL.19A cells [1] = assay: Transepithelial (apical to basolateral) HRP permeability of HT-29CL.19A monolayers, hyperpermeability induced by PDB; format: cell-based, human; conditions: PDB 1 mmol/l
From the text: The macromolecular permeability of the intestinal epithelium is controlled by the passage through intercellular tight junctions in the paracellular channels. Opening of these tight junctions is controlled by the epithelial cells in response to various intercellular mediators, such as Ca, cyclic AMP, G proteins and protein kinase c. The human intestinal cell line HT-29CL.19A is becoming increasingly more important for studying this paracellular permeability in vitro. See also the abovementioned article in J. Parenteral Enteral Nutrition, that is incorporated herein by reference.
For the present examples, confluent monolayers of HT-29CL19A cells were cultured on permeability filters. […] The transepithelial permeability from apical to basolateral was determined for horseradish peroxidase (HRP) with the aid of an enzyme assay. Phorbol 12,13-dibutyrate (PDB, 1 mmol/l) was used to increase the permeability. […] All agents were added to the apical compartment.

HT-29CL.19A cells [2] = conditions: Kouznetsova et al. J. Parenteral Enteral Nutrition 23 (1999) 136-139; cited from earlier work
[3] = cited from earlier work

For `N[C@@H](CCC(=O)O)C(=O)O` [Glutamate, glutamate], the “effect on PDB-induced hyperpermeability (HRP flux)” value (“effect … (HRP flux)” for short) (HT-29CL.19A cells [1]; glutamate 0.6 mmol/l, apical, p<0.001) was “had the same effect” and the “effect … (HRP flux)” value (HT-29CL.19A cells [1]; glutamate 0.6 mmol/l, apical, p<0.001, listed as glutamate) was “reduces the macromolecular hyperpermeability”.

For `NC(=O)CC[C@H](N)C(=O)O` [Glutamine, glutamine], the “effect … (HRP flux)” value (HT-29CL.19A cells [1]; glutamine added to apical compartment) is listed as “reduces this hyperpermeability appreciably”, the “effect on macromolecular hyperpermeability of intestinal cells induced by phorbol 12,13-dibutyrate” value (HT-29CL.19A cells [2]) is listed as “able to lower the macromolecular hyperpermeability” and the solubility [3] is listed as “poor solubility”.

With `N[C@H](C(=O)O)[C@@H]1CC(Cl)=NO1` [Acivicin, acivicin] the “effect of acivicin on the reduction in PDB-induced hyperpermeability in the presence of glutamate” value (HT-29CL.19A cells [1]; in the presence of glutamate) was “This effect did not occur” and the “effect of acivicin on the glutamine-mediated reduction in PDB-induced hyperpermeability” value (HT-29CL.19A cells [1]; in the presence of glutamine) was “prevented the glutamine-mediated reduction in the hyperpermeability”.

For `CCCC(=O)O[C@@H]1[C@@H](C)[C@@]2(O)[C@@H](C=C(CO)C[C@]3(O)C(=O)C(C)=C[C@@H]23)[C@@H]2C(C)(C)[C@]12OC(=O)CCC` [PDB, Phorbol 12,13-dibutyrate], the “increase of HRP flux compared with the control” value (HT-29CL.19A cells [1]; apical, after 150-279 min stimulation, p<0.001) was 3 fold.
